From patent EP4617273A1, “FUSED TRICYCLIC PARP1 INHIBITOR, PREPARATION METHOD THEREFOR, AND USE THEREOF” (Haihe Biopharma Co., Ltd., priority 2022, dated 2024)

How the values were obtained:
[1] = molecular target: T1, recombinant human PARP2 protein (Homo sapiens, UniProt Q9UGN5); experiment: PARP2 enzymatic inhibitory activity, histone substrate, chemiluminescent ELISA; type: biochemical; settings: histone substrate, 500 µM NAD+ not added; read-out: PARP2 IC50
T1 construct: purchased BPS 80502
Description: The PARP2 inhibitory activity assay was performed as in Experimental Method 1, except that PARP1 solution in step 2 of "3. Ribosylation reaction" was replaced with recombinant human PARP2 solution, and 500 µM NAD+ was not added in step 5 of the ribosylation reaction. Table 1. IC50 for inhibition of PARP1/2 enzymes by compounds of the present invention

MDA-MB-436 cells = experiment: MDA-MB-436 cell proliferation inhibition test (CellTiter-Glo, 7 days); type: cell-based; settings: Homo sapiens, MDA-MB-436, 168 h, 7 days incubation
Description: Human breast cancer MDA-MB-436 (purchased from ATCC) cells were cultured in DMEM medium (supplemented with 10% fetal bovine serum with 1% dual antibody) at 37 °C, 5% CO2. The cells were taken from the logarithmic growth phase, digested and prepare cell suspension witha certain concentration, which was inoculated into 96-well plates. 100 µL of cell suspension was added to each well of the 96-well plates, incubated overnight, then different concentrations of compounds were added, and the cells were incubated in the cell culture incubator for 7 days. At the end of incubation, 50 µL of CellTiter-Glo reagent was added to each well, mixed with a microplate and shaked for 2 min, and left at rt for 60 min, then the fluorescence value was read with a Spark® multimode microplate reader. […] Table 2. proliferation inhibitory activity of compounds of the present invention on MDA-MB-436 cells

[2] = molecular target: T2, Recombinant human PARP1 protein (Homo sapiens, UniProt P09874); experiment: biochemical
Description: (§2) The PARP1/2 inhibitory activity of the compounds of the present invention was tested in an assay using Histone as a substrate.
(§3) Aim of the assay: to test the PARP1/2 enzymatic activity inhibition IC50 values of the compounds of the present application according to established experimental methods.
(§4) 1. Compound Configuration: Dilute the compounds with DMSO in 384-well plates to a 1000-fold final concentration and set aside.
(§5) 1) Dilute Histone with PBS, add 25uL of Histone mixture to each well and incubate for 2 h. 2) Wash each well 5 times using PBST solution. Remove the solution with a clean paper towel.3) Add 75 uL of Blocking buffer to each well and incubate for 1 h at rt. 4) Wash each well 5 times using PBST solution. Remove the solution with a clean paper towel.
(§6) 2) Use 1× Assay buffer to prepare 2.5× final concentration of PARP1 solution. 3) Add 10 uL of enzyme solution to the compound wells and Max control wells; add 10 uL of 1× Assay buffer. […] 6) Centrifuge at 1000 rpm for 60 seconds and incubate at rt for 2 h. 7) Each well was washed 5 times with PBST solution. Remove the solution with a clean paper towel.
(§7) 1) Prepare Streptavidin-HRP solution, add 25 µL to each well, centrifuge at 1000 rpm for 60 sec, and incubate at rt for 30 min. 2) Wash each well 5 times using PBST solution. Remove the solution with a clean paper towel. 3) Add 50 µL of ELISA Chemiluminescent Substrate per well. 4) Centrifuge at 1000 rpm for 60 seconds and read with EnSight after 5 min.
(§8) The inhibition rate was calculated using the following formula: % inhibition = (max signal - compound signal) / (max signal - min signal) × 100, where 'min signal' is the mean value of negative control wells and 'max signal' is the mean value of positive control wells.
(§9) Fitting the quantitative effect curve: using the log value of the concentration as the X-axis and the percentage inhibition as the Y-axis; using the log(inhibitor) vs. response-variable slope method in software GraphPadPrism5 to fit the quantitative effect curve to calculate the IC50 value for the inhibition of the enzyme activity by the compounds of the present invention. The fitting formula is: Y=Bottom+ (Top-Bottom)/(1+10^((logIC50-X)*HillSlope)).

[3] = molecular target: T2, Recombinant human PARP1 protein; experiment: PARP1 enzymatic inhibitory activity, histone substrate, chemiluminescent ELISA; settings: PARP2 IC50 over PARP1 IC50
Description: as §2, §3, §4, §5, §6, §7, §8, §9

MDR1 (P-gp) = experiment: MDR1-MDCK II cell model of bidirectional permeability; type: in vitro ADME; settings: dog, Efflux Ratio = Papp (B-A) / Papp (A-B), read-out: ER ratio
Description: (§1) 2 µM of the test compound was added to the wells at the apical side or the basolateral side of the monolayer of cells and incubated for 2.5 h at 37.0°C in a 5.0% CO2 incubator. Cell monolayer integrity was determined by Lucifer yellowrejection assay. The buffer was removed from the apical side and basolateral side, and the concentration of the subject compounds was determined using LC-MS/MS. The concentration data were used to calculate the apparent permeabilitycoefficients of apical-to-basolateral (A-B) and basolateral-to-apical (B-A)side, and to calculate efflux ratio with the formula: Efflux Ratio = Papp (B-A) / Papp (A-B) Table 3. bidirectional permeability of MDR1-MDCK II cells for compounds of the present invention

MDR1 = experiment: as above; type: in vitro ADME; settings: dog, 2 µM, 2.5 h; for Papp A→B at 2.5 h, 2 µM: apical-to-basolateral; for Papp B→A at 2.5 h, 2 µM: basolateral-to-apical
Description: as §1

[4] = Preliminary pharmacokinetic test in mice; type: in vivo; settings: male, ICR; for AUC(0-t) / clearance / half-life: mouse plasma; for bioavailability: plasma, oral, mouse, p.o. 5 mg/kg versus i.v. 1 mg/kg
Description: 1. Healthy ICR mice were administered the tested compounds intravenously (1 mg/kg) or by gavage (5 mg/kg). Nine male mice weighing 30-35 g for each route of administration were randomly divided into three groups of three mice each.
The mice were fasted for 12h before the test and allowed to drink water freely. The mice were fed 4h after the administration.
Intravenous and gavage administration: 0.25h, 0.5h, 1.0h, 2.0h, 3.0h, 4.0h, 6.0h, 8.0h and 24h after administration.
Blood was collected continuously, and 3 animals were collected at each time point. Plasma collection and processing: 30-40 µL of venous blood was collected from the mouse retroorbital venous plexus at the above set time points, placed in an EDTA-K2 test tube, centrifuged at 3500 rpm for 10 min, and plasma was separated and frozen in a -20 °C refrigerator.
The concentration of the compounds in mouse plasma was determined by LC/MS/MS. Pharmacokinetic parameters after administration were calculated using the […] of Phoenix 8.3 software (Pharsight, USA).

T2 sequence (P09874 whole entry): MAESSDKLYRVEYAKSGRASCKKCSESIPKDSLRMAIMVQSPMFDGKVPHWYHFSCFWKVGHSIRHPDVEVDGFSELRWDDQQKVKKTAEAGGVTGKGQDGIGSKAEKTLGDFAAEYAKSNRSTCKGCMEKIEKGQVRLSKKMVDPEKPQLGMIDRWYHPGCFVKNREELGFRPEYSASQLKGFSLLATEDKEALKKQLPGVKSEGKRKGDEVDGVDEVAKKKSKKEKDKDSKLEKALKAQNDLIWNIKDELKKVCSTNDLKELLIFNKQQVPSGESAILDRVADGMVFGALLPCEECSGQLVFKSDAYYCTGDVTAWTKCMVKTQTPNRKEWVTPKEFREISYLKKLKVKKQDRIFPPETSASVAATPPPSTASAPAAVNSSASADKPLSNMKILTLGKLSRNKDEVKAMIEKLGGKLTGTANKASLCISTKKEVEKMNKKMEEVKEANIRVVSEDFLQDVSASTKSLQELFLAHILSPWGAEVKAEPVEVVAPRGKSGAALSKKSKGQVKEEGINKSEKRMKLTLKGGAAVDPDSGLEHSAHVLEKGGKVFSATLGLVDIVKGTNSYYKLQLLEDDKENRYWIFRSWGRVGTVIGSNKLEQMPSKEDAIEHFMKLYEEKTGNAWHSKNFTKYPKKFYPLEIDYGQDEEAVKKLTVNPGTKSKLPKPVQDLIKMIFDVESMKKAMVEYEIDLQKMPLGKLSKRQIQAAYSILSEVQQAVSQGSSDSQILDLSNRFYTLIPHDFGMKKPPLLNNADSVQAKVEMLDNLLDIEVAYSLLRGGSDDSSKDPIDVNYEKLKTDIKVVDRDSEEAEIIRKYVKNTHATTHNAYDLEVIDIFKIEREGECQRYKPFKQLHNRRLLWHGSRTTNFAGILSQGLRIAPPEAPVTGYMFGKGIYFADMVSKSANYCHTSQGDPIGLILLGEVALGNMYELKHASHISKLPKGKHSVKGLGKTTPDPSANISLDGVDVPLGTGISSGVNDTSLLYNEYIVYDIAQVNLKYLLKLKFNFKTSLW
T1 sequence (Q9UGN5 whole entry): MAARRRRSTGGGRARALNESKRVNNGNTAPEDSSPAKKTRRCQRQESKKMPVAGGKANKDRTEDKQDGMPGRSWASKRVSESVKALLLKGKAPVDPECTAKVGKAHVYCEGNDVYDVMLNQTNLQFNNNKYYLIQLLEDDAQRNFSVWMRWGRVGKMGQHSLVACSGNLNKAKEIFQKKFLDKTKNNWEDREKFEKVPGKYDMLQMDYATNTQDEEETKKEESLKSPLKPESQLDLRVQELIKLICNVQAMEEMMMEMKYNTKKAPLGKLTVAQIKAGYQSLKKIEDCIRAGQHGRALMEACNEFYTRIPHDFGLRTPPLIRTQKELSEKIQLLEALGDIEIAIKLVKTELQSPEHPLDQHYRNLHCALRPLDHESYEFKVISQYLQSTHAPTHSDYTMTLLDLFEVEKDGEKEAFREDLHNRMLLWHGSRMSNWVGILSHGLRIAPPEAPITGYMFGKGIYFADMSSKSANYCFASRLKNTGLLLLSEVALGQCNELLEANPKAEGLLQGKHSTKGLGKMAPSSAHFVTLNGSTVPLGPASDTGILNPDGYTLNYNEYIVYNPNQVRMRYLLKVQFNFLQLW

SMILES	IC50 [1] [nM]	IC50 (MDA-MB-436 cells) [nM]	IC50 [2] [nM]	PARP1/2 Fold selectivity [3]	efflux ratio at 2.5 h, 2 µM (MDR1 (P-gp))	Papp A→B at 2.5 h, 2 µM (MDR1) [×10⁻⁶ cm/s]	Papp B→A at 2.5 h, 2 µM (MDR1) [×10⁻⁶ cm/s]	AUC(0-t) ([4]; iv, i.v. 1 mg/kg) [ng·h/mL]	clearance ([4]; iv, i.v. 1 mg/kg) [mL/min/kg]	half-life ([4]; iv, i.v. 1 mg/kg) [h]	bioavailability [4] [%]	AUC(0-t) ([4]; po, p.o. 5 mg/kg) [ng·h/mL]	half-life ([4]; po, p.o. 5 mg/kg) [h]
CNC(=O)c1ccc(N2CCN(Cc3ccc4c(c3F)NC(=O)N3CC(C)N=C43)CC2)c(F)n1 (centres unmarked) [Compound 131]	1280	15.3	1.2	1064	–	–	–	–	–	–	–	–	–
CNC(=O)c1ccc(N2CCN(C(C)c3ccc4c(c3)[nH]c(=O)c3ccnn34)CC2)c(F)n1 (centres unmarked) [Compound 12]	214	< 1.52	0.57	374.9	–	–	–	–	–	–	–	–	–
CNC(=O)c1ccc(N2CCN(Cc3ccc4nc(C)c(=O)[nH]c4c3F)CC2)c(F)n1 [AZD-9574]	–	15.7	–	–	1	19.4	19.4	–	–	–	–	–	–
CNC(=O)c1ccc(N2CCN(Cc3ccc4c(c3F)NC(=O)N3CC5(CC5)N=C43)CC2)c(F)n1 [Compound 138]	–	3	–	–	–	14.7	17	–	–	–	–	–	–
CNC(=O)c1ccc(N2CCN(Cc3ccc4c([nH]c(=O)c5ccnn54)c3F)CC2)c(Cl)n1 [Compound 113]	1300	< 1.52	0.8	1626.3	–	–	–	–	–	–	–	–	–
CNC(=O)c1ccc(N2CCN(Cc3ccc4c(c3)[nH]c(=O)c3nn(C)cc34)CC2)c(F)n1 [Compound 22]	358	4.6	0.8	447.6	–	–	–	–	–	–	–	–	–
CNC(=O)c1ccc(N2CCN(Cc3ccc4c(c3F)NC(=O)N3CC(F)(F)CN=C43)CC2)c(Cl)n1 [Compound 159]	97.5	2.2	0.47	207.4	–	–	–	–	–	–	–	–	–
CNC(=O)c1ccc(N2CCN(Cc3ccc4c(c3)[nH]c(=O)c3nc(C)oc34)CC2)c(F)n1 [Compound 102]	522	3.7	1	521.6	–	–	–	–	–	–	–	–	–
CNC(=O)c1ccc(N2CCN(Cc3ccc4c(c3F)NC(=O)N3CC[C@H](C)N=C43)CC2)c(F)n1 [Compound 142]	> 10000	–	5.6	>1756	–	–	–	–	–	–	–	–	–
CNC(=O)c1ccc(N2CCN(Cc3ccc4c(c3Cl)NC(=O)N3CCN=C43)CC2)c(F)n1 [Compound 134]	3680	–	2.8	1313.2	–	–	–	–	–	–	–	–	–
CNC(=O)c1ccc(N2CCN(Cc3ccc4c(c3F)NC(=O)N3C[C@H](F)CN=C43)CC2)c(F)n1 [Compound 147]	278	2.1	1	277.7	–	–	–	–	–	–	–	–	–
CNC(=O)c1ccc(N2CCN(Cc3ccc4c(c3F)NC(=O)N3C4=NC[C@@H]3C)CC2)c(Cl)n1 [Compound 156]	–	25	1.9	–	–	16.3	21.1	–	–	–	–	–	–
CNC(=O)c1ccc(N2CCN(Cc3ccc4c(c3F)NC(=O)N3CC(C)(C)N=C43)CC2)c(F)n1 [Compound 136]	8870	–	11.3	785	–	–	–	–	–	–	–	–	–
CNC(=O)c1ccc(N2CCN(Cc3ccc4c(c3F)NC(=O)N3C4=NC[C@@H]3C)CC2)c(F)n1 [Compound 137]	1400	22.6	1.8	466.3	–	–	–	–	–	–	–	–	–
CNC(=O)c1ccc(N2CCN(C(C)c3ccc4c([nH]c(=O)c5ccnn54)c3F)CC2)c(F)n1 (centres unmarked) [Compound 13]	3150	–	2.87	1098.6	–	–	–	–	–	–	–	–	–
CNC(=O)c1ccc(N2CCN(Cc3ccc4c(c3F)NC(=O)N3CCCN=C43)CC2)c(F)n1 [Compound 139]	–	10.4	1	–	–	16.7	21.8	2820	5.9	3.1	98	13800	3.2
CNC(=O)c1ccc(N2CCN(C(C)c3ccc4c(c3)[nH]c(=O)c3cccn34)CC2)c(F)n1 (centres unmarked) [Compound 5]	17.3	–	0.15	115.3	–	–	–	–	–	–	–	–	–
CNC(=O)c1ccc(N2CCN(Cc3ccc4c(c3F)NC(=O)N3C[C@@H](C)N=C43)CC2)c(Cl)n1 [Compound 154]	1130	0.33	1.6	706.9	1.64	13.9	22.8	7240	2.3	1.1	62.1	22500	2.3
CNC(=O)c1ccc(N2CCN(Cc3ccc4c(c3F)NC(=O)N3CC5(CC5)N=C43)CC2)c(C)n1 [Compound 157]	–	3.6	0.5	–	–	15.1	21.6	–	–	–	–	–	–
CNC(=O)c1ccc(OC2CCN(Cc3ccc4c(c3)[nH]c(=O)c3ccnn34)C2)cn1 (centres unmarked) [Compound 75]	1870	–	16.5	113.5	–	–	–	–	–	–	–	–	–
CNC(=O)c1ccc(N2CCN(Cc3ccc4c(c3F)NC(=O)N3CC5(CC5)N=C43)CC2)c(Cl)n1 [Compound 158]	–	2.2	0.48	–	–	14.7	14.1	3090	5.5	0.8	108	11000	1
CNC(=O)c1ccc(N2CCN(Cc3ccc4c(c3F)NC(=O)N3CC(F)(F)CN=C43)CC2)c(C)n1 [Compound 160]	–	5.7	0.59	–	–	14.3	8.78	10500	1.6	0.86	70.7	26100	0.9
CNC(=O)c1ccc(N2CCN(Cc3ccc4c(c3)[nH]c(=O)c3nc(C)sc34)CC2)c(F)n1 [Compound 103]	829	1.4	0.9	922.1	–	–	–	–	–	–	–	–	–
CNC(=O)c1ccc(N2CCN(C(C)c3ccc4c(c3F)NC(=O)N3CC5(CC5)N=C43)CC2)c(F)n1 (centres unmarked) [Compound 173]	514	–	0.95	541.5	–	–	–	–	–	–	–	–	–
CNC(=O)c1ccc(N2CCN(C(C)c3ccc4c(c3)[nH]c(=O)c3cnn(C)c34)CC2)c(F)n1 (centres unmarked) [Compound 15]	313	–	3.6	86.8	–	–	–	–	–	–	–	–	–
CNC(=O)c1ccc(N2CCN(Cc3ccc4c(c3F)NC(=O)N3CCCN=C43)CC2)c(Cl)n1 [Compound 141]	–	5.8	1.3	–	–	16.2	23.1	3020	5.5	1.2	92.6	14000	2.5
CNC(=O)c1ccc(N2CCN(C(C)c3ccc4c([nH]c(=O)c5cccn54)c3F)CC2)c(F)n1 (centres unmarked) [Compound 7]	204	–	0.38	536.3	–	–	–	–	–	–	–	–	–
CNC(=O)c1ccc(N2CCN(Cc3ccc4c(c3F)NC(=O)N3C4=NCCC3C)CC2)c(F)n1 (centres unmarked) [Compound 150]	> 10000	–	17.6	>568	–	–	–	–	–	–	–	–	–
